# Assay results published in patent US6552089B1, “Method of treating or preventing alopecia” (priority 1992, dated 2003).
# “And” between values parts separate entries of the source, which are not always exact repeats. Equal entries are not always repeated. Where two headings read alike, the source gives them in different places.
# Columns and labels:
# [1] = tested on: alopecia which is induced by cyclophosphamide; conditions: rats
# [2] = tested on: alopecia under carboplatinum/etoposide chemotherapy; experiment: phase II chemotherapy trial, alopecia score; format: in vivo, patients; conditions: Group II: tellurate 3 mg/m^2 three times a week plus carboplatinum/etoposide chemotherapy; 12 weeks after chemotherapy
# Experimental: A phase II chemotherapy trial was carried out in patients having unresectable and metastatic non-small cell lung tumors. The chemotherapy was based on carboplatinum 300.0 mg/m^2/IV daily and etoposide 200.0 mg/m^2 on day 3, 5 and 7 for a total of 12 weeks of chemotherapy which was given to group I. In addition to the same chemotherapy, ammonium trichloro (O,O′-dioxoethylene)tellurate was given to Group II at a dose of 3 mg/m^2 three times a week starting two weeks before the chemotherapy and continued for 12 weeks after the chemotherapy. The alopecia of both groups was observed 12 weeks after the chemotherapy and was as follows: […]
# [3] = tested on: arabinoside-C induced alopecia; experiment: topical application in glycerin to back of arabinoside-C injected rats; format: in vivo; set-up: key to Grade of Alopecia: 0 = no alopecia; 1 = less than 20% alopecia; 2 = less than 50% alopecia; 3 = more than 50% alopecia; 4 = total alopecia; conditions: for Grade of Alopecia: arabinoside-C 25 mg/kg 2 h after each treatment
# Experimental: A stock composition of 1 mg. of ammonium trichloro (O,O′-dioxoethylene) tellurate in 1 ml. of glycerin was prepared. The stock composition was diluted with glycerin to give the following concentrations per ml. so that the stated dose could be applied topically by application of 1 ml. of solution. The solution was applied to the entire back surface of rats once daily for a period of 7 days. Two hours after each treatment the rats were injected with 25 mg/kg of arabinoside-C once daily. Control rats were treated with a glycerin and injected with arabinoside-C.
# [4] = tested on: arabinoside-C induced alopecia; experiment: arabinoside-C induced alopecia in 8 day old rats, tellurate given i.p. (method of Hussein et al.); format: in vivo, Sprauge Dawley rats; conditions: for effect on alopecia of a tellurate regimen / No. of subjects with alopecia grade 0 (no detectable alopecia) / No. of subjects with alopecia grade 1+ (mild, hair loss <50%) / No. of subjects with alopecia grade 2+ (moderately severe, hair loss >50%) / No. of subjects with alopecia grade 3+ (total or virtually total, hair loss >79%): rats; for No. of subjects with alopecia grade 0 (no detectable alopecia) / No. of subjects with alopecia grade 1+ (mild, hair loss <50%) / No. of subjects with alopecia grade 2+ (moderately severe, hair loss >50%) / No. of subjects with alopecia grade 3+ (total or virtually total, hair loss >79%): day 9
# Experimental: 28, 1990, pp. 1564-1566. […] The cycle of treatment lasted 7 days. […] A second experiment was carried out using the same procedure which is outlined above.
# [5] = tellurate 0.5 mg/Kg IP daily ×7 days with cyclophosphamide 20 mg/kg i.p. ×7 days, listed as ammonium trichloro (0,0′-dioxoethylene) tellurate
# [6] = tellurate 0.5 mg/Kg IP daily ×7 days with arabinoside-C 25 mg/kg i.p., first experiment
# [7] = tellurate 0.5 mg/Kg IP daily ×7 days with arabinoside-C 50 mg/kg i.p., first experiment
# [8] = tellurate 0.5 mg/Kg IP every other day ×7 days with arabinoside-C 25 mg/kg i.p., first experiment
# [9] = tellurate 0.5 mg/Kg IP every other day ×7 days with arabinoside-C 50 mg/kg i.p., first experiment
# [10] = tellurate 0.5 mg/Kg IP every other day ×7 days with arabinoside-C 50 mg/kg i.p., second experiment
# [11] = arabinoside-C 25 mg/kg daily ×7 days alone, first experiment
# [12] = arabinoside-C 50 mg/kg i.p. ×7 days alone, first experiment
# [13] = cyclophosphamide 20 mg/kg i.p. ×7 days alone
structure (smiles),measurement,setting,value
"Cl[TeH]1(Cl)(Cl)OCCO1.N [ammonium-trichloro (O,O′-dioxoethylene) tellurate]",protection against cyclophosphamide induced alopecia,[1]; 0.5 mg/kg/i.p. in conjunction with cyclophosphamide,mild protection
same,"No. of subjects with alopecia grade 1+ (mild, hair loss <50%)",[1]; tellurate 0.5 mg/Kg IP daily ×7 days with cyclophosphamide 20 mg/kg i.p. ×7 days,4
same,No. of subjects with alopecia grade 0 (no detectable alopecia),[1]; [5],2
same,"No. of subjects with alopecia grade 1+ (mild, hair loss <50%)",[1]; [5],2
same,"No. of subjects with alopecia grade 2+ (moderately severe, hair loss >50%)",[1]; [5],1
same,number with alopecia score 0,[2],122
same,number with alopecia score I (casual alopecia),[2],26
same,number with alopecia score II (>50% alopecia),[2],40
same,number with alopecia score III (<50% alopecia),[2],12
same,number with alopecia score IV (total alopecia),[2],0
same,percentage with alopecia score 0,[2],61.00%
same,percentage with alopecia score I (casual alopecia),[2],13.00%
same,percentage with alopecia score II (>50% alopecia),[2],20.00%
same,percentage with alopecia score III (<50% alopecia),[2],6.00%
same,percentage with alopecia score IV (total alopecia),[2],0.00%
same,Grade of Alopecia,[3]; 10 ug/rat topical in glycerin once daily 7 days,3 (3 = more than 50% alopecia)
same,Grade of Alopecia,[3]; 20 ug/rat topical in glycerin once daily 7 days,1 (1 = less than 20% alopecia)
same,rats that showed 0% alopecia,"[3]; 50 ug topical, arabinoside-C 25 mg/kg",100%
same,Grade of Alopecia,[3]; 50 ug/rat topical in glycerin once daily 7 days,0
same,Grade of Alopecia,[3]; 100 ug/rat topical in glycerin once daily 7 days,2 (2 = less than 50% alopecia)
same,Grade of Alopecia,[3]; 200 ug/rat topical in glycerin once daily 7 days,3 (3 = more than 50% alopecia)
same,dose response of topical effect on alopecia,"[3]; 10-200 ug/rat topical, arabinoside-C 25 mg/kg",A dose response effect was observed
same,effect on alopecia of a tellurate regimen,[4]; given daily,almost completely avoids alopecia
same,effect on alopecia of a tellurate regimen,[4]; given every other day,provides some protection from alopecia
same,histological examination of the skin,[4]; subjects treated with arabinoside-C and tellurate,no hair loss or reduced hair loss
same,No. of subjects with alopecia grade 0 (no detectable alopecia),[4]; [6],0
same,"No. of subjects with alopecia grade 1+ (mild, hair loss <50%)",[4]; [6],4
same,"No. of subjects with alopecia grade 2+ (moderately severe, hair loss >50%)",[4]; [6],0
same,"No. of subjects with alopecia grade 3+ (total or virtually total, hair loss >79%)",[4]; [6],0
same,No. of subjects with alopecia grade 0 (no detectable alopecia),"[4]; tellurate 0.5 mg/Kg IP daily ×7 days with arabinoside-C 25 mg/kg i.p., second experiment",6
same,No. of subjects with alopecia grade 0 (no detectable alopecia),[4]; [7],0
same,"No. of subjects with alopecia grade 1+ (mild, hair loss <50%)",[4]; [7],3
same,"No. of subjects with alopecia grade 2+ (moderately severe, hair loss >50%)",[4]; [7],1
same,"No. of subjects with alopecia grade 3+ (total or virtually total, hair loss >79%)",[4]; [7],0
same,No. of subjects with alopecia grade 0 (no detectable alopecia),"[4]; tellurate 0.5 mg/Kg IP daily ×7 days with arabinoside-C 50 mg/kg i.p., second experiment",6
same,No. of subjects with alopecia grade 0 (no detectable alopecia),[4]; [8],0
same,"No. of subjects with alopecia grade 1+ (mild, hair loss <50%)",[4]; [8],4
same,"No. of subjects with alopecia grade 2+ (moderately severe, hair loss >50%)",[4]; [8],0
same,"No. of subjects with alopecia grade 3+ (total or virtually total, hair loss >79%)",[4]; [8],0
same,No. of subjects with alopecia grade 0 (no detectable alopecia),"[4]; tellurate 0.5 mg/Kg IP every other day ×7 days with arabinoside-C 25 mg/kg i.p., second experiment",6
same,No. of subjects with alopecia grade 0 (no detectable alopecia),[4]; [9],0
same,"No. of subjects with alopecia grade 1+ (mild, hair loss <50%)",[4]; [9],1
same,"No. of subjects with alopecia grade 2+ (moderately severe, hair loss >50%)",[4]; [9],3
same,"No. of subjects with alopecia grade 3+ (total or virtually total, hair loss >79%)",[4]; [9],0
same,"No. of subjects with alopecia grade 1+ (mild, hair loss <50%)",[4]; [10],1
same,"No. of subjects with alopecia grade 2+ (moderately severe, hair loss >50%)",[4]; [10],2
same,"No. of subjects with alopecia grade 3+ (total or virtually total, hair loss >79%)",[4]; [10],3
"Nc1ccn([C@@H]2O[C@H](CO)[C@@H](O)[C@@H]2O)c(=O)n1 [arabinoside-C, reference compound]",alopecia,"[3]; all control animals: glycerin topical, arabinoside-C 25 mg/kg once daily",100%
same,No. of subjects with alopecia grade 0 (no detectable alopecia),[4]; [11],0
same,"No. of subjects with alopecia grade 1+ (mild, hair loss <50%)",[4]; [11],0
same,"No. of subjects with alopecia grade 2+ (moderately severe, hair loss >50%)",[4]; [11],0
same,"No. of subjects with alopecia grade 3+ (total or virtually total, hair loss >79%)",[4]; [11],3
same,"No. of subjects with alopecia grade 3+ (total or virtually total, hair loss >79%)","[4]; arabinoside-C 25 mg/kg i.p. ×7 days alone, second experiment",8
same,No. of subjects with alopecia grade 0 (no detectable alopecia),[4]; [12],0
same,"No. of subjects with alopecia grade 1+ (mild, hair loss <50%)",[4]; [12],0
same,"No. of subjects with alopecia grade 2+ (moderately severe, hair loss >50%)",[4]; [12],0
same,"No. of subjects with alopecia grade 3+ (total or virtually total, hair loss >79%)",[4]; [12],4
same,"No. of subjects with alopecia grade 3+ (total or virtually total, hair loss >79%)","[4]; arabinoside-C 50 mg/kg i.p. ×7 days alone, second experiment",8
same,histological examination of the skin,[4]; arabinoside-C treated subjects,almost complete loss of hair follicles
"O=P1(N(CCCl)CCCl)NCCCO1 (centres unmarked) [cyclophosphamide, reference compound]",No. of subjects with alopecia grade 0 (no detectable alopecia),[1]; [13],1
same,"No. of subjects with alopecia grade 1+ (mild, hair loss <50%)",[1]; [13],3 and 2
same,"No. of subjects with alopecia grade 1+ (mild, hair loss <50%)","[1]; cyclophosphamide 20 mg/kg i.p. ×7 days alone, listed as cyclosphosphamide",10
